US10961231B2, “NTCP inhibitors” (National Institute of Biological Sciences, Beijing, priority 2018, dated 2021)
Read-outs that look alike come from different tables or passages of the source.

Biological target: T1, NTCP (Homo sapiens, UniProt Q14973)
T1 sequence (Q14973 1-349): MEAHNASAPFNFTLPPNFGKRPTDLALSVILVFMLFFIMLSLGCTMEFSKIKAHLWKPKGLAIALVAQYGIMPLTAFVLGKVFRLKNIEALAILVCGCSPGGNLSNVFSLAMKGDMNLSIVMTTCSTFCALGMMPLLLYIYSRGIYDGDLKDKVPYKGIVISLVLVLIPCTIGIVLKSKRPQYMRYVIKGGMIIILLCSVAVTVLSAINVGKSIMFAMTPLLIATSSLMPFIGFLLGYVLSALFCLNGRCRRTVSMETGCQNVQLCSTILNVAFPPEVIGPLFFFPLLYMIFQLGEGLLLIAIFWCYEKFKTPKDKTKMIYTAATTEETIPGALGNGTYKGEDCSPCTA
Experiment: [3H]-TCA uptake assay (NTCP inhibition)
Type: cell-based
Outline: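 Read-out is liquid scintillation counting of Triton X-100 lysates after 15 min, 37° C uptake of 1 μM [3H]-taurocholate in Na+ Ringer's buffer (145 mM Na). Beforehand, PTH and HepG2-NTCP cells had 24 h in PMM for NTCP induction and 2 h of compound or DMSO treatment.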

[1] = given as a range, marked * (asterisk not explained)
[2] = given as a range, assay not given
[3] = IC50, given as a range, marked * (asterisk not explained)

## CCC1NC(=O)C(C2OC(Oc3cc(OC)cc(OCC4CCOCC4)c3)CC2C)N(C)C(=O)C(C(C)C)N(C)C(=O)C(CC(C)C)N(C)C(=O)C(CC(C)C)N(C)C(=O)C(C)NC(=O)C(C)NC(=O)C(CC(C)C)N(C)C(=O)C(C(C)C)NC(=O)C(CC(C)C)N(C)C(=O)CN(C)C1=O (centres unmarked) [Compound 66-o]
[1]
  IC50: 1000 to 100000 nM

## CCC1NC(=O)C(C2OC(Sc3ccc(N4CCN(C)CC4)cc3)CC2C)N(C)C(=O)C(C(C)C)N(C)C(=O)C(CC(C)C)N(C)C(=O)C(CC(C)C)N(C)C(=O)C(C)NC(=O)C(C)NC(=O)C(CC(C)C)N(C)C(=O)C(C(C)C)NC(=O)C(CC(C)C)N(C)C(=O)CN(C)C1=O [Compound 6A, [2-((2R,3R)-3-methyl-5-(4-(4-methylpiperazin-1-yl)phenylthio)tetrahydrofuran-2-yl)-2-(methylamino)acetic acid]^1-cyclosporin A]
[2]
  IC50: 1 to 1000 nM

## CCC1NC(=O)C(C2OC(Oc3cccc(OC)c3)CC2C)N(C)C(=O)C(C(C)C)N(C)C(=O)C(CC(C)C)N(C)C(=O)C(CC(C)C)N(C)C(=O)C(C)NC(=O)C(C)NC(=O)C(CC(C)C)N(C)C(=O)C(C(C)C)NC(=O)C(CC(C)C)N(C)C(=O)CN(C)C1=O (centres unmarked) [Compound 28A-o]
[3]
  IC50: 1000 to 100000 nM

## CCCN(C)c1cccc(SC2CC(C)C(C3C(=O)NC(CC)C(=O)N(C)CC(=O)N(C)C(CC(C)C)C(=O)NC(C(C)C)C(=O)N(C)C(CC(C)C)C(=O)NC(C)C(=O)NC(C)C(=O)N(C)C(CC(C)C)C(=O)N(C)C(CC(C)C)C(=O)N(C)C(C(C)C)C(=O)N3C)O2)c1 [Compound 50A, [2-((2R,3R)-3-methyl-5-(3-(methyl(propyl)amino)phenylthio)tetrahydrofuran-2-yl)-2-(methylamino)acetic acid]^1-cyclosporin A]
[2]
  IC50: 1 to 1000 nM

## CCOc1cc(OCC)cc(SC2CC(C)C(C3C(=O)NC(CC)C(=O)N(C)CC(=O)N(C)C(CC(C)C)C(=O)NC(C(C)C)C(=O)N(C)C(CC(C)C)C(=O)NC(C)C(=O)NC(C)C(=O)N(C)C(CC(C)C)C(=O)N(C)C(CC(C)C)C(=O)N(C)C(C(C)C)C(=O)N3C)O2)c1 [Compound 39A, [2-((2R,3R)-5-(3,5-diethoxyphenylthio)-3-methyltetrahydrofuran-2-yl)-2-(methylamino)acetic acid]^1-cyclosporin A]
[2]
  IC50: 1 to 1000 nM

## CCC1NC(=O)C(C2OC(Sc3cc(OC)cc(OCC4CCN(C)CC4)c3)CC2C)N(C)C(=O)C(C(C)C)N(C)C(=O)C(CC(C)C)N(C)C(=O)C(CC(C)C)N(C)C(=O)C(C)NC(=O)C(C)NC(=O)C(CC(C)C)N(C)C(=O)C(C(C)C)NC(=O)C(CC(C)C)N(C)C(=O)CN(C)C1=O (centres unmarked) [Compound 70]
[1]
  IC50: 1000 to 100000 nM

## CCC1NC(=O)C(C2OC(Oc3cccc(OCc4cccc(F)c4)c3)CC2C)N(C)C(=O)C(C(C)C)N(C)C(=O)C(CC(C)C)N(C)C(=O)C(CC(C)C)N(C)C(=O)C(C)NC(=O)C(C)NC(=O)C(CC(C)C)N(C)C(=O)C(C(C)C)NC(=O)C(CC(C)C)N(C)C(=O)CN(C)C1=O (centres unmarked) [Compound 20A-o]
[3]
  IC50: 1000 to 100000 nM

## CCC1NC(=O)C(C2OC(Oc3cc(OCCOC)cc(OCCOC)c3)CC2C)N(C)C(=O)C(C(C)C)N(C)C(=O)C(CC(C)C)N(C)C(=O)C(CC(C)C)N(C)C(=O)C(C)NC(=O)C(C)NC(=O)C(CC(C)C)N(C)C(=O)C(C(C)C)NC(=O)C(CC(C)C)N(C)C(=O)CN(C)C1=O (centres unmarked) [Compound 73-o]
[1]
  IC50: 1000 to 100000 nM

## CC[C@@H]1NC(=O)[C@H]([C@@H]2OC(OCc3cccc(Cl)c3)C[C@H]2C)N(C)C(=O)[C@H](C(C)C)N(C)C(=O)[C@H](CC(C)C)N(C)C(=O)[C@H](CC(C)C)N(C)C(=O)[C@@H](C)NC(=O)[C@H](C)NC(=O)[C@H](CC(C)C)N(C)C(=O)[C@H](C(C)C)NC(=O)[C@H](CC(C)C)N(C)C(=O)CN(C)C1=O (stereo partly drawn) [Compound 85A, [2-((2R,3R)-5-(3-chlorobenzyloxy)-3-methyltetrahydrofuran-2-yl)-2-(methylamino)acetic acid]^1-cyclosporin A]
Given as a range, assay not given, read-out: IC50
  IC50: 1 to 1000 nM

## CCC1NC(=O)C(C2OC(Oc3cccc(OCc4cccnc4)c3)CC2C)N(C)C(=O)C(C(C)C)N(C)C(=O)C(CC(C)C)N(C)C(=O)C(CC(C)C)N(C)C(=O)C(C)NC(=O)C(C)NC(=O)C(CC(C)C)N(C)C(=O)C(C(C)C)NC(=O)C(CC(C)C)N(C)C(=O)CN(C)C1=O (centres unmarked) [Compound 53A-o]
[3]
  IC50: 10000 nM

## CCC1NC(=O)C(C2OC(Sc3ccc(C4CCCCC4)cc3)CC2C)N(C)C(=O)C(C(C)C)N(C)C(=O)C(CC(C)C)N(C)C(=O)C(CC(C)C)N(C)C(=O)C(C)NC(=O)C(C)NC(=O)C(CC(C)C)N(C)C(=O)C(C(C)C)NC(=O)C(CC(C)C)N(C)C(=O)CN(C)C1=O [Compound 9A, [2-((2R,3R)-5-(4-cyclohexylphenylthio)-3-methyltetrahydrofuran-2-yl)-2-(methylamino)acetic acid]^1-cyclosporin A]
[2]
  IC50: 1000 to 1e+06 nM

## CCC1NC(=O)C(C2OC(SCc3ccc(Cl)c(Cl)c3)CC2C)N(C)C(=O)C(C(C)C)N(C)C(=O)C(CC(C)C)N(C)C(=O)C(CC(C)C)N(C)C(=O)C(C)NC(=O)C(C)NC(=O)C(CC(C)C)N(C)C(=O)C(C(C)C)NC(=O)C(CC(C)C)N(C)C(=O)CN(C)C1=O (centres unmarked) [Compound 94A-s]
[3]
  IC50: 1000 to 100000 nM

## CCC1NC(=O)C(C2OC(Sc3ccc(Cl)c(OCC4CCOCC4)c3)CC2C)N(C)C(=O)C(C(C)C)N(C)C(=O)C(CC(C)C)N(C)C(=O)C(CC(C)C)N(C)C(=O)C(C)NC(=O)C(C)NC(=O)C(CC(C)C)N(C)C(=O)C(C(C)C)NC(=O)C(CC(C)C)N(C)C(=O)CN(C)C1=O [Compound 43A, [2-((2R,3R)-5-(4-chloro-3-((tetrahydro-2H-pyran-4-yl)methoxy)phenylthio)-3-methyltetrahydrofuran-2-yl)-2-(methylamino)acetic acid]^1-cyclosporin A]
[2]
  IC50: 1 to 1000 nM

## CCC1NC(=O)C(C2OC(Oc3cccc(OCc4ccc(F)c(Cl)c4)c3)CC2C)N(C)C(=O)C(C(C)C)N(C)C(=O)C(CC(C)C)N(C)C(=O)C(CC(C)C)N(C)C(=O)C(C)NC(=O)C(C)NC(=O)C(CC(C)C)N(C)C(=O)C(C(C)C)NC(=O)C(CC(C)C)N(C)C(=O)CN(C)C1=O (centres unmarked) [Compound 22A-o]
[1]
  IC50: 1000 to 100000 nM

## CCC1NC(=O)C(C2OC(Oc3ccccc3)CC2C)N(C)C(=O)C(C(C)C)N(C)C(=O)C(CC(C)C)N(C)C(=O)C(CC(C)C)N(C)C(=O)C(C)NC(=O)C(C)NC(=O)C(CC(C)C)N(C)C(=O)C(C(C)C)NC(=O)C(CC(C)C)N(C)C(=O)CN(C)C1=O (centres unmarked) [Compound 1B-o]
[3]
  IC50: 1000 to 100000 nM

## CCC1NC(=O)C(C2OC(Sc3cc(Cl)cc(OCc4ccccc4)c3)CC2C)N(C)C(=O)C(C(C)C)N(C)C(=O)C(CC(C)C)N(C)C(=O)C(CC(C)C)N(C)C(=O)C(C)NC(=O)C(C)NC(=O)C(CC(C)C)N(C)C(=O)C(C(C)C)NC(=O)C(CC(C)C)N(C)C(=O)CN(C)C1=O (centres unmarked) [Compound 63]
[3]
  IC50: 1000 to 100000 nM

## CCC1NC(=O)C(C2OC(OCc3ccc(Cl)cc3)CC2C)N(C)C(=O)C(C(C)C)N(C)C(=O)C(CC(C)C)N(C)C(=O)C(CC(C)C)N(C)C(=O)C(C)NC(=O)C(C)NC(=O)C(CC(C)C)N(C)C(=O)C(C(C)C)NC(=O)C(CC(C)C)N(C)C(=O)CN(C)C1=O [Compound 86A, [2-((2R,3R)-5-(4-chlorobenzyloxy)-3-methyltetrahydrofuran-2-yl)-2-(methylamino)acetic acid]^1-cyclosporin A]
[2]
  IC50: 1 to 1000 nM

## CCC1NC(=O)C(C2OC(Oc3ccc(OC)c(OCc4ccccc4)c3)CC2C)N(C)C(=O)C(C(C)C)N(C)C(=O)C(CC(C)C)N(C)C(=O)C(CC(C)C)N(C)C(=O)C(C)NC(=O)C(C)NC(=O)C(CC(C)C)N(C)C(=O)C(C(C)C)NC(=O)C(CC(C)C)N(C)C(=O)CN(C)C1=O (centres unmarked) [Compound 64-o]
[1]
  IC50: 1000 to 100000 nM

## CCC1NC(=O)C(C2OC(OCc3cc(Cl)c(Cl)cc3Cl)CC2C)N(C)C(=O)C(C(C)C)N(C)C(=O)C(CC(C)C)N(C)C(=O)C(CC(C)C)N(C)C(=O)C(C)NC(=O)C(C)NC(=O)C(CC(C)C)N(C)C(=O)C(C(C)C)NC(=O)C(CC(C)C)N(C)C(=O)CN(C)C1=O (centres unmarked) [Compound 104]
[3]
  IC50: 1000 to 100000 nM

## CCC1NC(=O)C(C2OC(OCc3ccccc3OC)CC2C)N(C)C(=O)C(C(C)C)N(C)C(=O)C(CC(C)C)N(C)C(=O)C(CC(C)C)N(C)C(=O)C(C)NC(=O)C(C)NC(=O)C(CC(C)C)N(C)C(=O)C(C(C)C)NC(=O)C(CC(C)C)N(C)C(=O)CN(C)C1=O (single isomer, unassigned) [Compound 82A]
[2]
  IC50: 1 to 1000 nM

## CCC1NC(=O)C(C2OC(Sc3cc(OC)cc(OCc4ccc(F)cc4)c3)CC2C)N(C)C(=O)C(C(C)C)N(C)C(=O)C(CC(C)C)N(C)C(=O)C(CC(C)C)N(C)C(=O)C(C)NC(=O)C(C)NC(=O)C(CC(C)C)N(C)C(=O)C(C(C)C)NC(=O)C(CC(C)C)N(C)C(=O)CN(C)C1=O [Compound 60A, [2-((2R,3R)-5-(3-(4-fluorobenzyloxy)-5-methoxyphenylthio)-3-methyltetrahydrofuran-2-yl)-2-(methylamino)acetic acid]^1-cyclosporin A]
[2]
  IC50: 1 to 1000 nM

## CCC1NC(=O)C(C2OC(Oc3cccc(OCC4CCOCC4)c3)CC2C)N(C)C(=O)C(C(C)C)N(C)C(=O)C(CC(C)C)N(C)C(=O)C(CC(C)C)N(C)C(=O)C(C)NC(=O)C(C)NC(=O)C(CC(C)C)N(C)C(=O)C(C(C)C)NC(=O)C(CC(C)C)N(C)C(=O)CN(C)C1=O (centres unmarked) [Compound 33A-o]
[3]
  IC50: 1000 to 100000 nM

## CCC1NC(=O)C(C2OC(SCc3ccccc3OC)CC2C)N(C)C(=O)C(C(C)C)N(C)C(=O)C(CC(C)C)N(C)C(=O)C(CC(C)C)N(C)C(=O)C(C)NC(=O)C(C)NC(=O)C(CC(C)C)N(C)C(=O)C(C(C)C)NC(=O)C(CC(C)C)N(C)C(=O)CN(C)C1=O (centres unmarked) [Compound 82A-s]
[3]
  IC50: 1000 to 100000 nM
